Values after ≈ are worked out from the molar mass of the structure shown.
Experiments:
Heliothis sp. = test: Field trials on cotton, control of Heliothis sp.; type: in vivo, Heliothis virescens and Heliothis zea; conditions: for Yield: seed cotton per acre
Source text: (§1) Plots were a minimum of 0.2 acres, and all applications were by commercial ground equipment with a minimum of 10 gallons total spray solution per acre. The cypermethrin isomer content (weight %) of the several sigma-cypermethrin technical products used in the field trials were as follows:
(§2) Analysis of the data was based on a seasonal average of multiple evaluations taken over a four to six week period (3-4 applications) in trials for control of Heliothis sp.

cabbage looper = test: Field trials on lettuce, control of cabbage looper; type: in vivo, Trichoplusia ni
Source text: (§3) Field trials conducted on lettuce in California for evaluation of the control of cabbage looper consisted of a randomized complete block design of four replications per treatment. Applications were made to small plots with CO2 backpack sprayer using a minimum of 10 gallons per acre. Results were converted to percent control based on untreated check plots.

[1] = test system: Mexican bean beetle (Epilachna varivestis); test: Foliar evaluation, Mexican bean beetle (MBB); type: in vivo; conditions: for LC50: Epilachna varivestis, foliar, pinto beans, mortality at 48 hours
Method: (§4) Cypermethrin and sigma-cypermethrin were tested by foliar application at various concentrations in aqueous solutions containing 9.75% acetone and 0.25% octylphenoxypolyethoxyethanol. Insect species utilized included the cabbage looper (Trichoplusia ni), southern armyworm (Spodoptera eridania), Mexican bean beetle (Epilachna varivestis), tobacco budworm (Heliothis virescens), and corn earworm (Heliothis zea).
(§5) For all insects, pinto beans (Phaseolus vulgaris) plants were treated with the test solutions. The test solutions were applied with a sprayer to the upper and lower surfaces of the plant leaves to runoff. The plants were then allowed to dry and were severed at the base of the stem before being placed in cups. Ten second instar individuals of the appropriate insect species, except the tobacco budworm and corn earworm, were placed in each cup and the cup covered. Tests with the tobacco budworm and corn earworm used four replicates with each replicate containing five second instar insects. In all tests, mortality was read 48 hours later. The sigma-cypermethrin used in the foliar evaluations was the product of Example 2.

[2] = test system: alfalfa weevil (Hypera postica); test: Field trials, control of alfalfa weevil; type: in vivo
Method: (§6) Field trials were conducted in Louisiana, North Carolina, Texas, Kentucky, Tennessee, and Illinois to evaluate the control of alfalfa weevil (Hypera postica). Small plot trials were used in a randomized block design with four replications per treatment. Applications were made with CO2 backpack sprayers. Results were obtained at 3, 7, and 14 days after treatment (DAT) and were converted to percent control based on the untreated check.

target crop insects = test: Field trials, overall statement; type: in vivo; conditions: at half the rate of cypermethrin, or even lower
Source text: as §1, with “Field trials conducted on cotton in Louisiana, Mississippi, Alabama, and Arizona consisted of a randomized complete block design of four replications per treatment. Plots” for “Plots”
as §2, §3
as §6, with “Results were obtained at 3, 7, and 14 days after treatment (DAT) and were converted to percent control based on the untreated check.” left out

[3] = test system: rainbow trout (Oncorhynchus mykiss); test: Ninety-six-hour flow-through acute toxicity, rainbow trout; type: in vivo
Method: (§7) Ninety-six-hour flow-through acute toxicity studies of both cypermethrin and sigma-cypermethrin were conducted in the rainbow trout (Oncorhynchus mykiss) and in the sheepshead minnow (Cyprinodon variagatus) to determine the median-lethal-concentration (LC50) resulting from continuous exposure. For the rainbow trout the exposure medium was well water; for the sheepshead minnow, filtered seawater. Each group of 20 fish (10 per replicate aquarium) was exposed either to one of five concentrations of pyrethroid delivered in a diluter system in dimethylformamide (DMF), to 30 μL/L DMF in the exposure medium (solvent control), or to the exposure medium alone (control). Observations for mortality, morbidity, and other overt signs of toxicity were determined at prescribed intervals. Concentrations of the test materials were measured at the beginning and end of the exposure using a validated HPLC method. The cypermethrin isomer content (weight %) of the sigma-cypermethrin technical product used in this study was total isomers--88.2%, S-isomers--82%, cis/trans ratio--53/47.

certain insect species = test: Insecticidal activity, overall statement; type: in vivo
Method: as §4, §5

[4] = test system: sheepshead minnow (Cyprinodon variagatus); test: Ninety-six-hour flow-through acute toxicity, sheepshead minnow; type: in vivo
Method: as §7

[5] = Year 1, 0.06 lb ai/A, seasonal mean of 3 trials (MS, LA)
[6] = Year 2, 0.06 lb ai/A, seasonal mean of 4 trials (MS, LA)
[7] = Year 3, 0.06 lb ai/A, seasonal mean of 6-8 trials (MS, LA, AL, GA)
[8] = Year 1, 0.022 lb ai/A, seasonal mean of 3 trials (MS, LA)
[9] = Year 1, 0.03 lb ai/A, seasonal mean of 3 trials (MS, LA)
[10] = Year 2, 0.026 lb ai/A, seasonal mean of 4 trials (MS, LA)
[11] = Year 3, 0.013 lb ai/A, seasonal mean of 6-8 trials (MS, LA, AL, GA)
[12] = Year 3, 0.026 lb ai/A, seasonal mean of 6-8 trials (MS, LA, AL, GA)
[13] = Year 3, 0.039 lb ai/A, seasonal mean of 6-8 trials (MS, LA, AL, GA)

Q: With CC1(C)C(C=C(Cl)Cl)C1C(=O)OC(C#N)c1cccc(Oc2ccccc2)c1 (stereo not drawn) [cypermethrin, (cyano)(3-phenoxyphenyl)methyl 3-(2,2-dichloroethenyl)-2,2-dimethylcyclopropanecarboxylate, reference compound] as the molecule, how does the “% Hel. Live Larv.” value (Heliothis sp.; [5]) read?
A: 9%

Q: What about the “% Hel. Sq. Dam.” value (Heliothis sp.; [5]) of the same molecule?
A: 9%

Q: And the Yield (Heliothis sp.; Year 1, 0.06 lb ai/A, 3 trials (MS, LA))?
A: 2641 lb SC/A

Q: And the “% Hel. Live Larv.” value (Heliothis sp.; [6])?
A: 2%

Q: And the “% Hel. Sq. Dam.” value (Heliothis sp.; [6])?
A: 3%

Q: And the “% Hel. Live Larv.” value (Heliothis sp.; [7])?
A: 4%

Q: What about the “% Hel. Sq. Dam.” value (Heliothis sp.; [7]) of the same molecule?
A: 3%

Q: And the Yield (Heliothis sp.; Year 3, 0.06 lb ai/A, 6-8 trials)?
A: 2675 lb SC/A

Q: And the “% Cabbage Looper Control” value (cabbage looper; Year 1, 0.06 lb ai/A, 3 DAT, average of 2 trials (CA))?
A: 61%

Q: What about the “% Cabbage Looper Control” value (cabbage looper; Year 1, 0.06 lb ai/A, 7 DAT, average of 2 trials (CA)) of the same molecule?
A: 78%

Q: And the “% Cabbage Looper Control” value (cabbage looper; Year 2, 0.06 lb ai/A, 3 DAT, 1 trial (CA))?
A: 94%

Q: What about the “% Cabbage Looper Control” value (cabbage looper; Year 2, 0.06 lb ai/A, 7 DAT, 1 trial (CA)) of the same molecule?
A: 81%

Q: And the LC50 [1]?
A: 1.2 µg/mL (≈ 2.88 µM)

Q: And the “% Alfalfa Weevil Control” value ([2]; Year 2, 0.04 lb ai/A, 3 DAT, average of 6 trials)?
A: 94%

Q: And the “% Alfalfa Weevil Control” value ([2]; Year 2, 0.04 lb ai/A, 7 DAT, average of 6 trials)?
A: 96%

Q: And the “% Alfalfa Weevil Control” value ([2]; Year 2, 0.04 lb ai/A, 14 DAT, average of 6 trials)?
A: 90%

Q: Which results are given for CC1(C)C(C=C(Cl)Cl)C1C(=O)O[C@H](C#N)c1cccc(Oc2ccccc2)c1 (mixture of isomers) [sigma-cypermethrin, (S)(cyano)(3-phenoxyphenyl)methyl cis/trans-3-(2,2-dichloroethenyl)-2,2-dimethylcyclopropanecarboxylate]?
A: field results relative to cypermethrin (target crop insects): generally gave results essentially equivalent to that obtained with cypermethrin applied at the recommended rate; ratio of the cypermethrin LC50 to the sigma-cypermethrin LC50 [3]: 1.3; % Hel. Live Larv. (Heliothis sp.; [8]): 10%; % Hel. Sq. Dam. (Heliothis sp.; [8]): 9%; Yield (Heliothis sp.; Year 1, 0.022 lb ai/A, 3 trials (MS, LA)): 2828 lb SC/A; % Hel. Live Larv. (Heliothis sp.; [9]): 8%; % Hel. Sq. Dam. (Heliothis sp.; [9]): 9%; Yield (Heliothis sp.; Year 1, 0.03 lb ai/A, 3 trials (MS, LA)): 2795 lb SC/A; % Hel. Live Larv. (Heliothis sp.; [10]): 3%; % Hel. Sq. Dam. (Heliothis sp.; [10]): 3%; % Hel. Live Larv. (Heliothis sp.; [11]): 6%; % Hel. Sq. Dam. (Heliothis sp.; [11]): 3%; Yield (Heliothis sp.; Year 3, 0.013 lb ai/A, 6-8 trials): 2818 lb SC/A; % Hel. Live Larv. (Heliothis sp.; [12]): 5%; % Hel. Sq. Dam. (Heliothis sp.; [12]): 4%; Yield (Heliothis sp.; Year 3, 0.026 lb ai/A, 6-8 trials): 2778 lb SC/A; % Hel. Live Larv. (Heliothis sp.; [13]): 5%; % Hel. Sq. Dam. (Heliothis sp.; [13]): 3%; Yield (Heliothis sp.; Year 3, 0.039 lb ai/A, 6-8 trials): 2692 lb SC/A; % Cabbage Looper Control (cabbage looper; Year 1, 0.026 lb ai/A, 3 DAT, average of 2 trials (CA)): 83%; % Cabbage Looper Control (cabbage looper; Year 1, 0.026 lb ai/A, 7 DAT, average of 2 trials (CA)): 90%; % Cabbage Looper Control (cabbage looper; Year 2, 0.013 lb ai/A, 3 DAT, 1 trial (CA)): 98%; % Cabbage Looper Control (cabbage looper; Year 2, 0.013 lb ai/A, 7 DAT, 1 trial (CA)): 71%; % Cabbage Looper Control (cabbage looper; Year 2, 0.026 lb ai/A, 3 DAT, 1 trial (CA)): 98%; % Cabbage Looper Control (cabbage looper; Year 2, 0.026 lb ai/A, 7 DAT, 1 trial (CA)): 91%; % Cabbage Looper Control (cabbage looper; Year 2, 0.039 lb ai/A, 3 DAT, 1 trial (CA)): 100%; % Cabbage Looper Control (cabbage looper; Year 2, 0.039 lb ai/A, 7 DAT, 1 trial (CA)): 98%; effectiveness relative to cypermethrin (certain insect species): twice as effective as cypermethrin; LC50 [1]: 0.3 µg/mL; effectiveness relative to cypermethrin ([1]; the only Coleoptera tested, laboratory): four times as effective; Relative Potency ([1]; vs cypermethrin, MBB): 4.0; ratio of the cypermethrin LC50 to the sigma-cypermethrin LC50 [4]: 1.64; % Alfalfa Weevil Control ([2]; Year 1, 0.022 lb ai/A, 3 DAT, average of 4 trials): 96%; % Alfalfa Weevil Control ([2]; Year 1, 0.022 lb ai/A, 7 DAT, average of 4 trials): 94%; % Alfalfa Weevil Control ([2]; Year 1, 0.022 lb ai/A, 14 DAT, average of 4 trials): 96%; % Alfalfa Weevil Control ([2]; Year 2, 0.01 lb ai/A, 3 DAT, average of 6 trials): 93%; % Alfalfa Weevil Control ([2]; Year 2, 0.01 lb ai/A, 7 DAT, average of 6 trials): 93%; % Alfalfa Weevil Control ([2]; Year 2, 0.01 lb ai/A, 14 DAT, average of 6 trials): 85%; % Alfalfa Weevil Control ([2]; Year 2, 0.015 lb ai/A, 3 DAT, average of 6 trials): 94%; % Alfalfa Weevil Control ([2]; Year 2, 0.015 lb ai/A, 7 DAT, average of 6 trials): 97%; % Alfalfa Weevil Control ([2]; Year 2, 0.015 lb ai/A, 14 DAT, average of 6 trials): 94%; % Alfalfa Weevil Control ([2]; Year 2, 0.022 lb ai/A, 3 DAT, average of 6 trials): 94%; % Alfalfa Weevil Control ([2]; Year 2, 0.022 lb ai/A, 7 DAT, average of 6 trials): 96%; % Alfalfa Weevil Control ([2]; Year 2, 0.022 lb ai/A, 14 DAT, average of 6 trials): 94%
